The results in this text go back to US20230241073A1, “PHARMACEUTICAL COMPOSITION FOR PREVENTING OR TREATING NON-SMALL CELL LUNG CANCER ASSOCIATED WITH RON MUTANTATION, AND METHOD USING SAME” (WELLMARKER BIO CO., LTD., priority 2020, published 2023).

For orientation: IC50 means the concentration needed to halve the response being measured.

Assay [1] deals with NCI-H1944 non-small cell lung cancer cell line of a mutation RONΔ155 type. In words: MTS assay, cell growth inhibitory ability, NCI-H1944. The following applies: Homo sapiens; NCI-H1944, RON mutation Δ155, 72 hours. Format: cell-based. The procedure: (§1) In order to compare and confirm the cell growth inhibitory ability of Examples 1 (WM-S1-030) to 5, positive control 1 (BMS-777607) and positive control 2 (AMG-510) in four non-small cell lung cancer cell lines of a mutation RONΔ155 type (Calu-6, A549, NCI-H358, NCI-H1944), MTS assay was carried out.
(§2) For MTS assay, 1,000 cells of each non-small cell lung cancer cell line per well were seeded in a 96-well-plate, and 24 hours later, treated with the compounds of Examples 1 to 5, positive control 1 and positive control 2 at various concentrations ([…]) in 100 μL of 10% FBS-RPMI medium (Welgene) per each well. Thereafter, the cells were cultured for 72 hours, and then 20 μL of MTS solution (Promega) was added and cultured for 2 hours, and then absorbance was measured at 490 nm. The cytotoxicity was analyzed by deriving the IC50 for the compounds of Examples 1 to 5, positive control 1 and positive control 2 using GraphPad Prism™ 5.
A general note: Formazan colour is commonly taken as a measure of viable cells.

Assay [2] has as its system A549 non-small cell lung cancer cell line of a mutation RONΔ155 type. Briefly: MTS assay, cell growth inhibitory ability, A549. It counts as cell-based. The following applies: Homo sapiens; A549, RON mutation Δ155, 72 hours. How it is done:
as §1, §2

Assay [3] concerns Calu-6 non-small cell lung cancer cell line of a mutation RONΔ155 type. Briefly: MTS assay, cell growth inhibitory ability, Calu-6. The following applies: Homo sapiens; Calu-6, RON mutation Δ155, 72 hours. It counts as cell-based. How it is done: as §1, §2
The test system of assay [4] is NCI-H358 non-small cell lung cancer cell line of a mutation RONΔ155 type. In words: MTS assay, cell growth inhibitory ability, NCI-H358. Format: cell-based. The following applies: Homo sapiens; NCI-H358, RON mutation Δ155, 72 hours. How it is done:
as §1, §2

The test system is the same in assay [5]. In words: Cell killing efficacy, trypan blue exclusion assay, NCI-H358. It counts as cell-based. The following applies: NCI-H358, 1 μM, 48 hours, FIG. 1. The procedure:
(§3) A549 and NCI-H358, which are non-small cell lung cancer cell lines of a mutation RONΔ155 type, were dispensed, and 24 hours later, treated with 1 μM of the compounds of Examples 1 (WM-S1-030) to 5, positive control 1 (BMS-777607) and positive control 2 (AMG-510), respectively, while replacing the medium. After 48 hours, the cells and the cell fluid were harvested (1500 rpm, 4 min), and live cells and dead cells were quantified through trypan blue (15250-061, Gibco) exclusion assay. Statistical analysis was performed using T-test in Excel.

Assay [6] relates to NCI-H460 (mRONΔ165) non-small cell lung cancer cell line transplanted mouse model. In words: Tumor growth inhibition in NCI-H460 transplanted animal model. It counts as in vivo. The following applies: NCI-H460 xenograft, 50 mg/kg, once a day for 2 weeks. The procedure:
It was confirmed whether tumor growth was inhibited by administering Example 1 (WM-S1-030) at a dose of 50 mpk to a mouse model transplanted with NCI-H460, which is a non-small cell lung cancer cell line of a mutation RONΔ165 type. Specifically, 5-week-old female BALB/c-nude mice were purchased and acclimatized for 1 week. Thereafter, NCI-H460 (2×10^6 cells/mouse), a non-small cell lung cancer cell line of a mutation RONΔ165 type, was diluted in PBS and Matrigel, and 200 μL was injected subcutaneously into the right dorsal side of the mouse. When the size of the tumor reached about 100 mm^3, the negative control (excipient) and Example 1 were orally administered. In this case, positive control 1 (BMS-777607) was administered at a dose of 50 mpk. The drug was administered once a day for 2 weeks, and the tumor size and body weight were measured twice a week. After the drug administration was completed, the mice were euthanized, the tumor was extracted, and the weight was measured.

Assay [7] has as its system A549 non-small cell lung cancer cell line of a mutation RONΔ155 type. Briefly: Cell killing efficacy, trypan blue exclusion assay, A549. It counts as cell-based. The following applies: A549, 1 μM, 48 hours, FIG. 1. How it is done: as §3

Counter-ions that a name gives are not always drawn.

As for `CCOc1ccn(-c2ccccc2)c(=O)c1C(=O)Nc1ccc(Oc2ccnc3cc(-c4ccc(CNCCOC)cn4)sc23)c(F)c1` [Example 2, 4-ethoxy-N-(3-fluoro-4-{[2-(5-{[(2-methoxyethyl)amino]methyl}pyridin-2-yl)thieno[3,2-b]pyridin-7-yl]oxy}phenyl)-2-oxo-1-phenyl-1,2-dihydropyridine-3-carboxamide hydrochloride], the IC50 was greater than 10000 nM in assay [1], 1940 nM in assay [2], 7290 nM in assay [3] and 9110 nM in assay [4].
In the same order, the values of `CCOc1ccn(-c2ccccc2)c(=O)c1C(=O)Nc1ccc(Oc2ccnc3cc(-c4ccc(CN5CCN(C)CC5)cn4)sc23)c(F)c1` [Example 3, hydrochloride] are 2160 nM, 610 nM, 1550 nM and 2610 nM.
Turning to `COc1cc2c(Oc3ccc(NC(=O)c4c5c(cn(-c6ccc(F)cc6)c4=O)CCO5)cc3F)ccnc2cc1OCCN1CCOCC1` [Example 4, N-(3-fluoro-4-{[6-methoxy-7-(2-morpholinoethoxy)quinolin-4-yl]oxy}phenyl)-5-(4-fluorophenyl)-6-oxo-2,3,5,6-tetrahydrofuro[3,2-c]pyridine-7-carboxamide], the IC50 in assay [1] was found to be 600 nM; in assay [2], 370 nM; in assay [3] it was 850 nM; in assay [4], 890 nM.
In the same order, the values of `COc1cc2c(Oc3ccc(NC(=O)c4c5c(cn(-c6ccc(F)cc6)c4=O)CCO5)cc3F)ccnc2cc1OCCCN1CC(C#N)C1` [Example 5, N-[4-({7-[3-(3-cyanoazetidin-1-yl)propoxy]-6-methoxyquinolin-4-yl}oxy)-3-fluorophenyl]-5-(4-fluorophenyl)-6-oxo-2,3,5,6-tetrahydrofuro[3,2-c]pyridine-7-carboxamide] are 310 nM, 190 nM, 1330 nM and 270 nM.
Consider `CCOc1ccn(-c2ccc(F)cc2)c(=O)c1C(=O)Nc1ccc(Oc2ccnc(N)c2Cl)c(F)c1` [Positive control 1, N-{4-[(2-amino-3-chloro-4-pyridinyl)oxy]-3-fluorophenyl}-4-ethoxy-1-(4-fluorophenyl)-2-oxo-1,2-dihydro-3-pyridinecarboxamide, reference compound], for which the “Cell killing efficacy (cell death)” value in assay [5] and in assay [7] was “response to the drug was low” each time. Moreover, in assay [6], the “Tumor growth inhibition rate (TGI, %)” value is recorded as 26.1 ± 1.7%. Also, the 50% inhibitory concentration (IC50) in assay [1], in assay [2], in assay [3] and in assay [4] was greater than 10000 nM each time.
Take `C=CC(=O)N1CCN(c2nc(=O)n(-c3c(C)ccnc3C(C)C)c3nc(-c4c(O)cccc4F)c(F)cc23)[C@@H](C)C1` [Positive control 2, reference compound]: the “Cell killing efficacy (cell death)” value in assay [5] and in assay [7] was “response to the drug was low” throughout. Also, the concentration for half-maximal inhibition (IC50) was greater than 10000 nM in assay [1], greater than 10000 nM in assay [2], greater than 10000 nM in assay [3] and 50 nM in assay [4].
